These compounds were tested against T1, human CCR2B (Homo sapiens, UniProt P41597) (assay: Calcium mobilization assay (FLIPR, MCP-1 stimulated CHOK1-CCR2B-A5 cells)). Settings: antagonist activity vs 20 nM MCP-1, CHOK1-CCR2B-A5 cells.
T1 construct: host or cells: CHO-K1 (CHOK1-CCR2B-A5)
T1 sequence (P41597 1-360 isoform P41597-2): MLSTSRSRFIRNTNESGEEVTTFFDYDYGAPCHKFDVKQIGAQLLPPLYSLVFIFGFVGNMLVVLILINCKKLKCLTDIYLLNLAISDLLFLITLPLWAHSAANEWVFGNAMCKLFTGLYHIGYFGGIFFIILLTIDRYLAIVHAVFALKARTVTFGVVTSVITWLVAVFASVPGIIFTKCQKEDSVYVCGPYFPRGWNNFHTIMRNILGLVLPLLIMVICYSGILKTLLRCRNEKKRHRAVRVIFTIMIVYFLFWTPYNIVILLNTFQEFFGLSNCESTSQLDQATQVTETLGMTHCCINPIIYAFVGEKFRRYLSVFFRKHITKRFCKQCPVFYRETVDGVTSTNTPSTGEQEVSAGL
Format: cell-based
Description: Calcium Mobilization Assay
CHOK1-CCR2B-A5 cells (from Euroscreen) stably overexpressing the human chemokine receptor 2 isoform B were cultured in Nutrient Hams F12 medium supplemented with 5% FBS, 100 U/ml penicillin, 100 μg/ml streptomycin, 400 μg/ml G418 and 5 μg/ml puromycin.
For the assay cells were grown overnight in 384-well black clear flat bottom polystyrene plates (Costar) at 37° C. at 5% CO2. After washing with DMEM, 20 mM Hepes, 2.5 mM probenecid, 0.1% BSA (DMEM assay buffer) cells were loaded with 4 μM Fluo-4 in the same DMEM assay buffer for 2 hours at 30° C. Excess dye was removed and cells were washed with DMEM assay buffer. 384-well compound plates were prepared with DMEM assay buffer/0.5% DMSO with or without various concentrations of test compounds. Usually compounds were tested for agonist and antagonist activity.
Test compounds were added to the assay plate and agonist activity was monitored as fluorescence for 80 seconds with a FLIPR (488 nm excitation; 510-570 nm emission; Molecular Devices). After 20-30 min. of incubation at 30° C., 20 nM MCP-1 (R&D; Roche) was added and fluorescence was monitored again for 80 seconds. Increases in intracellular calcium are reported as maximum fluorescence after agonist exposure minus basal fluorescence before exposure. Antagonist activity is indicated as inhibitor concentration required for 50% inhibition of specific calcium increases.

Row | SMILES | IC50 [µM]
1 | Cc1cc(-c2cccc(OC(F)(F)F)c2)cc(C)c1C(=O)N1CCC(N2CCCC2)CC1 [Example 1, (3,5-Dimethyl-3′-trifluoromethoxy-biphenyl-4-yl)-(4-pyrrolidin-1-yl-piperidin-1-yl)-methanone] | 0.06
2 | Cc1cc(-c2cccc(C(F)(F)F)c2)cc(C)c1C(=O)N1CCC(N2CCCC2)CC1 [Example 2, (3,5-Dimethyl-3′-trifluoromethyl-biphenyl-4-yl)-(4-pyrrolidin-1-yl-piperidin-1-yl)-methanone] | 0.021
3 | Cc1cc(-c2cccc(OC(F)(F)F)c2)ccc1C(=O)N1CCC(N2CCCC2)CC1 [Example 6, (3-Methyl-3′-trifluoromethoxy-biphenyl-4-yl)-(4-pyrrolidin-1-yl-piperidin-1-yl)-methanone] | 0.43
4 | Cc1cc(-c2cccc(C(F)(F)F)c2)ccc1C(=O)N1CCC(N2CCCC2)CC1 [Example 7, (3-Methyl-3′-trifluoromethyl-biphenyl-4-yl)-(4-pyrrolidin-1-yl-piperidin-1-yl)-methanone] | 0.15
5 | Cc1cc(-c2cccc(C(F)(F)F)c2)cc(C)c1C(=O)N1CCC(N2CCC[C@H]2CO)CC1 [Example 9, (3,5-Dimethyl-3′-trifluoromethyl-biphenyl-4-yl)-[4-((S)-2-hydroxymethyl-pyrrolidin-1-yl)-piperidin-1-yl]-methanone] | 0.009
6 | Cc1cc(-c2cccc(OC(F)(F)F)c2)cc(C)c1C(=O)N1CCC(N2CCC[C@H]2CO)CC1 [Example 10, (3,5-Dimethyl-3′-trifluoromethoxy-biphenyl-4-yl)-[4-((S)-2-hydroxymethyl-pyrrolidin-1-yl)-piperidin-1-yl]-methanone] | 0.039
7 | Cc1nc(-c2cccc(C(F)(F)F)c2)nc(C)c1C(=O)N1CCC(N2CCCC2)CC1 [Example 13, [4,6-Dimethyl-2-(3-trifluoromethyl-phenyl)-pyrimidin-5-yl]-(4-pyrrolidin-1-yl-piperidin-1-yl)-methanone] | 0.19
8 | Cc1cc(-c2cncc(C(F)(F)F)c2)cc(C)c1C(=O)N1CCC(N2CCC[C@H]2CO)CC1 [Example 14, [2,6-Dimethyl-4-(5-trifluoromethyl-pyridin-3-yl)-phenyl]-[4-((S)-2-hydroxymethyl-pyrrolidin-1-yl)-piperidin-1-yl]-methanone] | 0.048
9 | Cc1nc(-c2cccc(C(F)(F)F)c2)nc(C)c1C(=O)N1CCC(N2CCC[C@H]2CO)CC1 [Example 16, [4,6-Dimethyl-2-(3-trifluoromethyl-phenyl)-pyrimidin-5-yl]-[4-((S)-2-hydroxymethyl-pyrrolidin-1-yl)-piperidin-1-yl]-methanone] | 0.31
10 | Cc1nc(-c2cccc(C(F)(F)F)c2)nc(C2CC2)c1C(=O)N1CCC(N2CCCC2)CC1 [Example 18, [4-Cyclopropyl-6-methyl-2-(3-trifluoromethyl-phenyl)-pyrimidin-5-yl]-(4-pyrrolidin-1-yl-piperidin-1-yl)-methanone] | 0.49
11 | Cc1nc(-c2cccc(C(F)(F)F)c2)nc(C2CC2)c1C(=O)N1CCC(N2CCC[C@H]2CO)CC1 [Example 19, [4-Cyclopropyl-6-methyl-2-(3-trifluoromethyl-phenyl)-pyrimidin-5-yl]-[4-((S)-2-hydroxymethyl-pyrrolidin-1-yl)-piperidin-1-yl]-methanone] | 0.99
12 | Cc1cc(-c2cccc(C(F)(F)F)c2)cc(C)c1C(=O)N1CCC(N2CCC(O)CC2)CC1 [Example 22, (3,5-Dimethyl-3′-trifluoromethyl-biphenyl-4-yl)-(4-hydroxy-[1,4′]bipiperidinyl-1′-yl)-methanone] | 0.055
13 | Cc1cc(-c2cncc(C(F)(F)F)c2)cc(C)c1C(=O)N1CCC(N2CCC(O)CC2)CC1 [Example 24, [2,6-Dimethyl-4-(5-trifluoromethyl-pyridin-3-yl)-phenyl]-(4-hydroxy-[1,4′]bipiperidinyl-1′-yl)-methanone] | 0.27
14 | Cc1cc(-c2cccc(C(F)(F)F)c2)nc(C)c1C(=O)N1CCC(N2CCCC2)CC1 [Example 27, [2,4-Dimethyl-6-(3-trifluoromethyl-phenyl)-pyridin-3-yl]-(4-pyrrolidin-1-yl-piperidin-1-yl)-methanone] | 0.021
15 | Cc1cc(-c2cccc(OC(F)(F)F)c2)nc(C)c1C(=O)N1CCC(N2CCCC2)CC1 [Example 28, [2,4-Dimethyl-6-(3-trifluoromethoxy-phenyl)-pyridin-3-yl]-(4-pyrrolidin-1-yl-piperidin-1-yl)-methanone] | 0.079
16 | Cc1cc(-c2cccc(OC(F)(F)F)c2)nc(C)c1C(=O)N1CCC(N2CCC[C@H]2CO)CC1 [Example 29, [2,4-Dimethyl-6-(3-trifluoromethoxy-phenyl)-pyridin-3-yl]-[4-((S)-2-hydroxymethyl-pyrrolidin-1-yl)-piperidin-1-yl]-methanone] | 0.15
17 | Cc1cc(-c2cccc(C(F)(F)F)c2)nc(C)c1C(=O)N1CCC(N2CCC[C@H]2CO)CC1 [Example 30, [2,4-Dimethyl-6-(3-trifluoromethyl-phenyl)-pyridin-3-yl]-[4-((S)-2-hydroxymethyl-pyrrolidin-1-yl)-piperidin-1-yl]-methanone] | 0.067
18 | O=C(c1c(F)cc(-c2cccc(C(F)(F)F)c2)cc1F)N1CCC(N2CCCC2)CC1 [Example 39, (3,5-Difluoro-3′-trifluoromethyl-biphenyl-4-yl)-(4-pyrrolidin-1-yl-piperidin-1-yl)-methanone] | 0.089
19 | O=C(c1c(F)cc(-c2cccc(OC(F)(F)F)c2)cc1F)N1CCC(N2CCCC2)CC1 [Example 40, (3,5-Difluoro-3′-trifluoromethoxy-biphenyl-4-yl)-(4-pyrrolidin-1-yl-piperidin-1-yl)-methanone] | 0.22
20 | Cc1cc(-c2cncc(C(F)(F)F)c2)nc(C)c1C(=O)N1CCC(N2CCCC2)CC1 [Example 42, (4,6-Dimethyl-5′-trifluoromethyl-[2,3′]bipyridinyl-5-yl)-(4-pyrrolidin-1-yl-piperidin-1-yl)-methanone] | 0.24
21 | Cc1cc(-c2cncc(C(F)(F)F)c2)nc(C)c1C(=O)N1CCC(N2CCC[C@H]2CO)CC1 [Example 43, (4,6-Dimethyl-5′-trifluoromethyl-[2,3′]bipyridinyl-5-yl)-[4-((S)-2-hydroxymethyl-pyrrolidin-1-yl)-piperidin-1-yl]-methanone] | 0.48
22 | COc1cc(-c2cccc(C(F)(F)F)c2)cc(C)c1C(=O)N1CCC(N2CCCC2)CC1 [Example 44, (3-Methoxy-5-methyl-3′-trifluoromethyl-biphenyl-4-yl)-(4-pyrrolidin-1-yl-piperidin-1-yl)-methanone] | 0.076
23 | Cc1cc(-c2cccc(C(F)(F)F)c2)cc(O)c1C(=O)N1CCC(N2CCCC2)CC1 [Example 45, (3-Hydroxy-5-methyl-3′-trifluoromethyl-biphenyl-4-yl)-(4-pyrrolidin-1-yl-piperidin-1-yl)-methanone] | 0.048
24 | O=C(c1ccc(-c2cccc(C(F)(F)F)c2)cc1Cl)N1CCC(N2CCCC2)CC1 [Example 46, (3-Chloro-3′-trifluoromethyl-biphenyl-4-yl)-(4-pyrrolidin-1-yl-piperidin-1-yl)-methanone] | 0.122
25 | Cc1cc(-c2cccc(C(F)(F)F)c2)cc(-c2cncnc2)c1C(=O)N1CCC(N2CCCC2)CC1 [Example 47, (5-Methyl-3-pyrimidin-5-yl-3′-trifluoromethyl-biphenyl-4-yl)-(4-pyrrolidin-1-yl-piperidin-1-yl)-methanone] | 0.012
26 | Cc1cc(-c2cccc(C(F)(F)F)c2)cc(-c2cccnc2)c1C(=O)N1CCC(N2CCCC2)CC1 [Example 48, (5-Methyl-3-pyridin-3-yl-3′ trifluoromethyl-biphenyl-4-yl)-(4-pyrrolidin-1-yl-piperidin-1-yl)-methanone] | 0.016
27 | COc1nc(-c2cccc(C(F)(F)F)c2)cc(C)c1C(=O)N1CCC(N2CCCC2)CC1 [Example 50, [2-Methoxy-4-methyl-6-(3-trifluoromethyl-phenyl)-pyridin-3-yl]-(4-pyrrolidin-1-yl-piperidin-1-yl)-methanone] | 0.082
28 | Cc1cc(-c2cccc(C(F)(F)F)c2)nc(O)c1C(=O)N1CCC(N2CCCC2)CC1 [Example 51, [2-Hydroxy-4-methyl-6-(3-trifluoromethyl-phenyl)-pyridin-3-yl]-(4-pyrrolidin-1-yl-piperidin-1-yl)-methanone; 4-Methyl-3-(4-pyrrolidin-1-yl-piperidine-1-carbonyl)-6-(3-trifluoromethyl-phenyl)-1H-pyridin-2-one (tautomers)] | 0.017
29 | Cc1cc(-c2cccc(C(F)(F)F)c2)nc(OCCO)c1C(=O)N1CCC(N2CCCC2)CC1 [Example 53, [2-(2-Hydroxy-ethoxy)-4-methyl-6-(3-trifluoromethyl-phenyl)-pyridin-3-yl]-(4-pyrrolidin-1-yl-piperidin-1-yl)-methanone] | 0.011

Reference: patent US8153805B2, “Biaryl derivatives” (Hoffmann-La Roche Inc., priority 2007, dated 2012)
